Experimental data: patent US6548540B2, “Method of treating cancer using dithiocarbamate derivatives” (Charlotte-Mecklenburg Hospital Authority, priority 1998, dated 2003)
Entries after “also recorded” stand apart in the source; their conditions may differ.

What was measured:
[1] = test system: transcription factor binding to CRE (cyclic AMP response element); assay: EMSA of nuclear protein from treated M1619 cells, binding to CRE; type: cell-based, human
Experimental: This dose was chosen to approximate the steady state plasma and tissue concentrations of drug in human subjects on chronic therapy with this agent. Disulfiram was solubilized in dimethylsulfoxide (DMSO) so that the final concentration of DMSO was less than 0.3-0.5%. Equal volumes of DMSO were added to control experiments. Nuclear protein was harvested and electrophoretic mobility gel shift assays were performed using DNA consensus binding sequence for the cyclic-AMP responsive element (CRE) as outlined below. […] Nuclear protein was isolated and DNA binding reactions were performed as previously described in detail (See, […], et al., “Dehydroepiandrosterone and analogs inhibit DNA binding of AP-1 and airway smooth muscle proliferation,” J. Pharmacol. Exper. Ther. 285:[…] (1998); T. Kennedy, et al., “Copper-dependent inflammation and nuclear factor-κB activation by particulate air pollution,” Am. J. Respir. Cell Mol. Biol. 19:366-378 (1998)). Monolayers were washed twice in cold DPBS and equilibrated 10 minutes on ice with 0.7 ml cold cytoplasmic extraction buffer, CEB (10 mM Tris, pH 7.9, 60 mM KCl, 1 mM EDTA, 1 mM DTT) with protease inhibitors, PI (1 mM Pefabloc, 50 μg/ml antipain, 1 μg/ml leupeptin, 1 μg/ml pepstatin, 40 μg/ml bestatin, 3 μg/ml E-64 and 100 μg/ml chymostatin). The detergent Nonidet P-40 (NP-40) was added to a final concentration of 0.1% and cells were dislodged with a cell scraper. Nuclei were pelleted by centrifugation and washed with CEB/PI. […] DNA-protein binding reactions were performed with 2 μg of nuclear protein (as determined by the Pierce method) and 30-80,000 cpm of ^32P-end-labelled double-stranded DNA probe in 10 mM Tris-HCl, pH 7.5, 50 mM NaCl, 0.5 mM EDTA, 0.5 mM DTT (except where indicated), 1 mM MgCl2, 50 μg/ml poly dI-dC, and 4% glycerol. […] Gels were dried and analyzed by autoradiography at -80° C. using an image intensifier screen. […]

tumor cell lines = assay: Proliferation of tumor cell lines with redox, NO synthase or cyclooxygenase agents (cell line not given); type: cell-based, human
Experimental: Potential redox effects of disulfiram were studied in three sets of experiments. The importance of cellular glutathione (GSH) in mediating or modulating thiocarbamate toxicity was studied by measuring levels of intracellular GSH after treatment with disulfiram. […] Also, to assess whether a nonspecific antioxidant effect of disulfiram or PDTC might account for cellular growth inhibition, we studied the effect of the potent lipophilic antioxidant probucol (1.0 to 1,000 μM) on proliferation of malignant cell lines. […] To explore the role of cyclooxygenase inhibition on tumor cell growth, cells were cultured with or without disulfiram in the presence or absence of the cyclooxygenase-1 (COX1) and cyclooxygenase-2 (COX2) inhibitors indomethacin (5μg/ml) or sodium salicylate (1 mM). To probe whether disulfiram might be inducing growth retardation by interruption or stimulation of NO production, proliferation was studied with and without disulfiram in the presence and absence of the nitric oxide […] inhibitor Nω-nitro-L-arginine added to growth medium (100 μM). […] J. Respir. Cell Mol. Biol. 7:574-581 (1992); […], et al. R., supra; S. S. Brar, et al., “Requirement for reactive oxygen species in serum-induced and platelet-derived growth factor-induced growth of airway smooth muscle,” J. Biol. Chem. 274:20017-20026 (1999)). This assay empirically distinguishes between dead and living cells. For proliferation studies, cells were seeded into 24-well uncoated plastic plates (Costar) at 50,000 cells per well and cultured with respective media and mitogens. […] MTT-containing medium was removed, 0.5 ml dimethylsulfoxide (DMSO) was added to each well, and the absorbance of the solubilized purple formazan dye was measured at 540 nm. A total of 4-6 wells were studied at each treatment condition.

SMILES: CCN(CC)C(=S)SSC(=S)N(CC)CC [Disulfiram, tetraethylthiuram disulfide]
- DNA-binding to CRE ([1]; 5 μM disulfiram alone, treated cells): slightly reduced
- transcription factor binding to CRE ([1]; 5 μM disulfiram and 1.6 μM cupric sulfate, cells treated 6, 12 or 24 hour): substantially interrupts; also recorded: eliminated
- DNA binding of the upper ATF-2 containing complex II (densitometry) ([1]; disulfiram 5 μM plus CuSO4 1.6 μM, 8 hours, n=4): by half
- inhibition of growth (tumor cell lines; disulfiram alone): 36.8±4.0%
- inhibition of growth (tumor cell lines; disulfiram plus LNAME): 26.7±3.1%
